Data reported in patent US11001591B2, “TRAF 6 inhibitors” (HELMHOLTZ ZENTRUM MUENCHEN—DEUTSCHES FORSCHUNGSZENTRUM FÜR …, priority 2016, dated 2021).
Like-named read-outs stand apart in the source and are kept apart here.

Experiments:
[1] = tested on: BJAB (GCB DLBCL); assay: Cell viability in DLBCL, BJAB; type: cell-based; conditions: 30 μM added at day 0, 4 and 8; 9 days
Method: To determine the effects of C25-140 on MYD88-dependent ABC-DLBCL, we chose the HBL1 (ABC-DLBCL-MYD88 L265P), U2932 (ABC DLBCL-MYD88 wt) and BJAB (GCB DLBCL) cell lines. 1×10^6 cells of each cell line was seeded in 5 ml and treated with 30 μM compound C25-140 (compound 3) or DMSO. The entire experiment was carried out for 9 days. Every day 500 μl were taken and viable cell number was acquired using the ViCEII cell counter (Beckmann Coulter). At days 4 and 8 of the experiment the volume was again adjusted to 5 ml and samples were supplemented with 30 μM compound C25-140 or DMSO. This process was necessary to ensure linear proliferation of DMSO treated cells. All curves of C25-140 treated samples were referred to the corresponding DMSO treated controls.

[2] = target: T1, RNF4 (Homo sapiens, UniProt P78317); assay: In vitro ubiquitination assay, RNF4; type: biochemical
T1 construct: purchased Boston Biochem one of K-102, K-260, K-200B, K-220, K-240, K-270
Method: (§1) For analysis of clAP1, MDM2, TRIM63, RNF4, ITCH and E6AP mediated poly-ubiquitination, the respective ubiquitin ligase kit from Boston Biochem (K-102, K-260, K-200B, K-220, K-240 and K-270) was used. Here, reaction buffer, E1, E2 and E3 enzyme (and p53 substrate in case of MDM2) were mixed and pre-incubated with compound or DMSO for 5 minutes at room temperature before adding Mg^2+-ATP and mono-ubiquitin for reaction start. Ubiquitination was visualized by Western Blot analyses.

[3] = tested on: 78 oncological cell lines and control cell lines HS-5 and MCF 10A; assay: Omniscreen cancer cell line panel, CellTiter-Glo; type: cell-based; conditions: nine concentrations, top 80 μM, 72 hours
Method: The effect of C25-140 on cell viability of 80 cancer cell lines using the CellTiter-Glo luminescent cell viability assay was conducted at CrownBioscience Inc. at the testing facility in Beijing. Here, 80 selected cell lines were cultured in media supplemented with 10-15% FBS, in the temperature of 37° C., 5% CO2 and 95% humidity. Culture medium was purchased from GIBCO or Sigma, USA. The cells were treated with C25-140 in 9 dose levels starting at 80 μM with 3.16-fold serial dilutions. Cisplatin served as a reference control and started with a top working concentration of 100 μM. Test samples were incubated for 72 hours and cell viability was measured by the CellTiter-Glo assay.

[4] = tested on: 24 different Ubiquitin reaction cascades; assay: Ubiquitin Profiler (Eurofins); type: biochemical; conditions: 30 μM compound
Method: C25-140 was sent to Eurofins Pharma Discovery Services UK to perform a Single Point Ubiquitin Profiler testing of C25-140 effect at a concentration of 30 μM on 24 different Ubiquitin reaction cascades employing distinct combinations of E2, E3 and substrate. Each reaction was measured in duplicates. Cascade activity is expressed as a percentage of the mean cascade activity in the positive control samples. The positive control value is considered to be 100%, and all test samples are referred to this value.

[5] = Microsomal stability; type: in vitro ADME
Method: (§2) All ADME (plasma stability, plasma protein binding, microsomal stability, Log D, Caco-2 assay, CYP450 inhibition and hERG predictor assay) as well as pharmacokinetic studies (Tmax, Cmax, AUC0-240 min, Mean Residence Time, Elimination half life, Elimination rate constant, Volume of Distribution and Clearance) of C25-140 (compound 3) were conducted by Bienta Enamine Biology Services of Bienta/Enamine Ltd.

[6] = Pharmacokinetic studies IV, PO, IP; type: in vivo; conditions: for half-life: read-out: in vivo half-life in circulation
Method: as §2
The inventors also tested the pharmacokinetics (PK) of C25-140 after intravenous (IV), peroral (PO) and intraperitoneal (IP) injection of each 10 mg/kg compound. All the analyzed data are summarized in FIG. 9B and the concentration/time-course graph for IP administration is shown in FIG. 9C.

[7] = target: T2, TRAF6 (Homo sapiens, UniProt Q9Y4K3); assay: In vitro ubiquitination assay (Western blot), TRAF6 with Ubc13/Uev1a; type: biochemical
T2 construct: made in house
Method: The ability of TRAF6 to form K63-linked poly-ubiquitin chains in conjunction with Ubc13 was analyzed after compound treatment. Therefore, untagged TRAF6WT and TRAF6D57K, respectively were recombinantly purified. 0.125 μM of TRAF6 protein was pre-incubated with DMSO or compound in a total volume of 100 μL in K63 assay buffer (25 nM Tris-HCl pH 7.6; 250 nM MgCL2; […] creatine phosphate; 0.3 U/mL inorganic pyrophosphatase; 0.3 U/mL creatine phosphokinase) for 30 minutes at room temperature. Small aliquots for input samples were taken. A master mix containing 0.01 μM E1-activating enzyme (UBE1) (Boston Biochem), 0.2 μM E2-conjugating enzyme complex (Ubc13/Uev1a) (Boston Biochem), 1 mM ZnCl2, 2 mM ATP und 4 μM mono-ubiquitin (Boston Biochem) was added to the TRAF6 protein and the reaction mixture was incubated for 120 minutes at 37° C. The reaction was stopped by adding 4×SDS loading buffer and boiling at 95° C. for 5 minutes. The input samples were analyzed using the Pierce Silver Stain Kit (Thermo Fisher Scientific). Ubiquitination was detected in Western Blot analysis using an ubiquitin antibody.

[8] = Plasma stability; type: in vitro ADME
Method: as §2

[9] = target: T3, E6AP (Homo sapiens, UniProt Q05086); assay: In vitro ubiquitination assay, E6AP; type: biochemical; conditions: HECT E3 ligase
T3 construct: purchased Boston Biochem one of K-102, K-260, K-200B, K-220, K-240, K-270
Method: as §1

[10] = tested on: p-IκBα (Ser32/36); assay: ALPHASurefire p-IκBα in IL-1β stimulated MEF cells; type: cell-based, mouse; conditions: compared with C25, C25-189, C25-167; FIG. 1C
Method: In order to detect protein levels of p-IκBα (Ser32/36) as well as total IκBα, 1×10^4 MEF cells were seeded in 96-well plates, treated with compound for 6 hours and stimulated with 1 ng/ml IL-1β for 7 minutes. The p-IκBα and total IκBα protein levels were analyzed using the ALPHASurefire kits (PerkinElmer) following the manufacturer's instruction. The general 2-plate protocol was conducted.

T3 sequence (Q05086 whole entry): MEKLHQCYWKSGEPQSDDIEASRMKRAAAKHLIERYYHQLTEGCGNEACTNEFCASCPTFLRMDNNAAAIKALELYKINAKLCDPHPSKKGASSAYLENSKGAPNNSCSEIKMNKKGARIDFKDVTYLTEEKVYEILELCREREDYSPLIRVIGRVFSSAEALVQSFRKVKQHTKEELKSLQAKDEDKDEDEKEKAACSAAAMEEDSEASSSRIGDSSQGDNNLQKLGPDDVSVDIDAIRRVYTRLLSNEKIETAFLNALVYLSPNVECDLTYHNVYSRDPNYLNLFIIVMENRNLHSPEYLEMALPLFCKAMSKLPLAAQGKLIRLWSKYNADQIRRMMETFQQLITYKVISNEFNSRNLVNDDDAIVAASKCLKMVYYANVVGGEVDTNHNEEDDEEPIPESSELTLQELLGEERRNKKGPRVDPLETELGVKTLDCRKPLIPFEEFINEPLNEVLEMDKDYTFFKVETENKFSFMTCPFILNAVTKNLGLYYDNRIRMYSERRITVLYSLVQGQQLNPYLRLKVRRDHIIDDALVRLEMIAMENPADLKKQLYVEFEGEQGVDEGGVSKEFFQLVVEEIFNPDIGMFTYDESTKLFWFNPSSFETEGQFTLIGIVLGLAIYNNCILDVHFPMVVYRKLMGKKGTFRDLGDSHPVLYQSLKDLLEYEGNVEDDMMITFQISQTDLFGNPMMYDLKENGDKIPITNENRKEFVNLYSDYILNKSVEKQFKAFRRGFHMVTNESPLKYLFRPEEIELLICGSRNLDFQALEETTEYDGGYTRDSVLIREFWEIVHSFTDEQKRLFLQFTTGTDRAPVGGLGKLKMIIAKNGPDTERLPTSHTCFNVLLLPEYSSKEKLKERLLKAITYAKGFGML
T1 sequence (P78317 whole entry, species assumed): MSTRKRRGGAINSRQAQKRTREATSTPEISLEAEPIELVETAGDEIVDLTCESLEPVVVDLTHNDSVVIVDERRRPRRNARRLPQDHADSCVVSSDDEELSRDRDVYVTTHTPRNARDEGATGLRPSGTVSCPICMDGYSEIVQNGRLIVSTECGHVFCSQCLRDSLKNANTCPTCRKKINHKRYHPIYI
T2 sequence (Q9Y4K3 50-159 limits assumed, species assumed): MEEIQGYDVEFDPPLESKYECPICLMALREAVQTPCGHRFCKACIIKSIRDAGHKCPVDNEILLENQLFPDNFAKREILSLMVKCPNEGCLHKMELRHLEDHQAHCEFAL

RNF4 auto-ubiquitination [2]: not affected
microsomal stability [5]: stable
distribution phase ([6]; IV, PO, IP 10 mg/kg): rapid initial distribution phase
half-life ([6]; in vivo, iv, 10 mg/kg): 1.33 h
half-life ([6]; in vivo, po, 10 mg/kg): 2.12 h
bioavailability ([6]; in vivo, po, calculated, 10 mg/kg): ~45%
half-life ([6]; in vivo, IP administration, 10 mg/kg): 3.07 h
TRAF6 E3 ligase activity to form poly-ubiquitin chains [7]: dose-dependently diminished
plasma stability [8]: stable
S5A ubiquitination by E6AP [9]: not affected
Structure (SMILES): Cc1nn(-c2ccc3nnc(C)n3n2)c(C)c1CCC(=O)N1CCC(Cc2ccccc2)CC1 [Compound 3, 1-(4-benzylpiperidin-1-yl)-3-(3,5-dimethyl-1-(3-methyl-[1,2,4]triazolo[4,3-b]pyridazin-6-yl)-1H-pyrazol-4-yl)propan-1-one]
viability (cell count) [1]: did not show any difference
viability of cancer cell lines [3]: major effect is on cancer cells of blood origin
viability of control cell lines HS-5 and MCF 10A [3]: not affected at all
inhibition of ubiquitination cascades, Ubiquitin Profiler panel [4]: None of the reactions is considerably inhibited
adverse effects on animals during PK studies ([6]; 10 mg/kg): no obvious adverse effects
p-IκBα protein levels, ALPHASurefire [10]: more active
